What was measured:
SK-MEL-28 = test: cells; format: functional; conditions: Homo sapiens, time 48 hrs
Description: Growth inhibition of human SK-MEL-28 cells incubated for 48 hrs by sulforhodamine B assay

[1] = molecular target: Tyrosine-protein kinase JAK2 (Homo sapiens) (UniProt O60674); test: Inhibition of recombinant C-terminal His6-tagged human JAK2 (808 to end residues) expressed in baculovirus infected Sf21 insect cells at 10 uM relative to control
SR = test: cells; format: functional; conditions: Homo sapiens, time 48 hrs
Description: Growth inhibition of human SR cells incubated for 48 hrs by sulforhodamine B assay

NCI-H23 = test: cells; format: functional; conditions: Homo sapiens, time 48 hrs
Description: Growth inhibition of human NCI-H23 cells incubated for 48 hrs by sulforhodamine B assay

[2] = tested on: Panel NCI-60 (60 carcinoma cell lines); test: cells; format: functional; conditions: Homo sapiens, time 48 hrs
Description: Growth inhibition of human Panel NCI-60 (60 carcinoma cell lines) incubated for 48 hrs by sulforhodamine B assay

[3] = molecular target: Fibroblast growth factor receptor 1 (Homo sapiens) (UniProt P11362); test: Inhibition of human FGFR1 assessed as residual activity at 10 uM relative to control
Sequence of Fibroblast growth factor receptor 1 (Homo sapiens) (P11362 22-822 limits assumed): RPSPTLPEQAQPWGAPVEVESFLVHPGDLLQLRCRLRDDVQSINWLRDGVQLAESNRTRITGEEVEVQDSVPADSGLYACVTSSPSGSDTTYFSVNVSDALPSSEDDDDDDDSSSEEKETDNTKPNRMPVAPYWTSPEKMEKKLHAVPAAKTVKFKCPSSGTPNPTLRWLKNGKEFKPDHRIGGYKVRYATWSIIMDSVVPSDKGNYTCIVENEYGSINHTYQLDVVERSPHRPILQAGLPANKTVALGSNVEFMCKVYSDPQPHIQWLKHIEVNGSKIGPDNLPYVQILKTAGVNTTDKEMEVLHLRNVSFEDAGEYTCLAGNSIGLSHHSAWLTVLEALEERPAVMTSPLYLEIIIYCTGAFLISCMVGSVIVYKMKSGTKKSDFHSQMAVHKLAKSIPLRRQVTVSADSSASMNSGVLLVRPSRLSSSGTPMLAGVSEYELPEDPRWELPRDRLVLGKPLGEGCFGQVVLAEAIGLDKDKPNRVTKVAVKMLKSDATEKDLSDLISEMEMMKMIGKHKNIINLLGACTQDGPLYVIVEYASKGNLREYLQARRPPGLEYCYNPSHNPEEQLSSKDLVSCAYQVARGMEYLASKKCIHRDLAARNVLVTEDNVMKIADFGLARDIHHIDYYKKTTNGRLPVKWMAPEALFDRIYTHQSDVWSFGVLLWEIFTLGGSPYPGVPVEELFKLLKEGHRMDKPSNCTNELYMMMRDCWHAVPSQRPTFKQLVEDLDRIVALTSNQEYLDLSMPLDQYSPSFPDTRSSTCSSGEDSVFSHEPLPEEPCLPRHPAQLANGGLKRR

A549 = test: cells; format: functional; conditions: Homo sapiens, time 48 hrs
Description: Growth inhibition of human A549/ATCC cells incubated for 48 hrs by sulforhodamine B assay

[4] = molecular target: PI3-kinase p110-alpha/p85-alpha (Homo sapiens) (UniProt P27986+P42336); test: Inhibition of p110 alpha/p85 alpha (unknown origin) at 10 uM relative to control; format: protein-complex assay
HCT-15 = test: cells; format: functional; conditions: Homo sapiens, time 48 hrs
Description: Growth inhibition of human HCT-15 cells incubated for 48 hrs by sulforhodamine B assay

NCI-H322M = test: cells; format: functional; conditions: Homo sapiens, time 48 hrs
Description: Growth inhibition of human NCI-H322M cells incubated for 48 hrs by sulforhodamine B assay

[5] = tested on: PI3-kinase p110-alpha/p85-alpha (Homo sapiens), P27986+P42336 [H1047R]; test: Inhibition of p110alpha/p85alpha H1047R mutant (unknown origin) at 10 uM relative to control; format: protein-complex assay
RXF 393 = test: cells; format: functional; conditions: Homo sapiens, time 48 hrs
Description: Growth inhibition of human RXF 393 cells incubated for 48 hrs by sulforhodamine B assay

[6] = molecular target: Cyclin-dependent kinase 2/cyclin E1 (Homo sapiens) (UniProt P24864+P24941); test: Inhibition of full length C-terminal His6-tagged human CDK2/full length N-terminal GST-tagged human Cyclin E expressed in baculovirus infected Sf21 insect cells assessed as residual activity at 10 uM relative to control
[7] = molecular target: Vascular endothelial growth factor receptor 3 (Homo sapiens) (UniProt P35916); test: Inhibition of N-terminal GST-tagged human FLT4 (800 to end residues) expressed in baculovirus infected Sf21 cells assessed as residual activity at 10 uM relative to control
[8] = molecular target: High affinity nerve growth factor receptor (Homo sapiens, UniProt P04629); test: Inhibition of recombinant N-terminal His6-tagged human TrkA (440 to end residues) expressed in baculovirus infected Sf21 insect cells
Sequence of High affinity nerve growth factor receptor (P04629 whole entry): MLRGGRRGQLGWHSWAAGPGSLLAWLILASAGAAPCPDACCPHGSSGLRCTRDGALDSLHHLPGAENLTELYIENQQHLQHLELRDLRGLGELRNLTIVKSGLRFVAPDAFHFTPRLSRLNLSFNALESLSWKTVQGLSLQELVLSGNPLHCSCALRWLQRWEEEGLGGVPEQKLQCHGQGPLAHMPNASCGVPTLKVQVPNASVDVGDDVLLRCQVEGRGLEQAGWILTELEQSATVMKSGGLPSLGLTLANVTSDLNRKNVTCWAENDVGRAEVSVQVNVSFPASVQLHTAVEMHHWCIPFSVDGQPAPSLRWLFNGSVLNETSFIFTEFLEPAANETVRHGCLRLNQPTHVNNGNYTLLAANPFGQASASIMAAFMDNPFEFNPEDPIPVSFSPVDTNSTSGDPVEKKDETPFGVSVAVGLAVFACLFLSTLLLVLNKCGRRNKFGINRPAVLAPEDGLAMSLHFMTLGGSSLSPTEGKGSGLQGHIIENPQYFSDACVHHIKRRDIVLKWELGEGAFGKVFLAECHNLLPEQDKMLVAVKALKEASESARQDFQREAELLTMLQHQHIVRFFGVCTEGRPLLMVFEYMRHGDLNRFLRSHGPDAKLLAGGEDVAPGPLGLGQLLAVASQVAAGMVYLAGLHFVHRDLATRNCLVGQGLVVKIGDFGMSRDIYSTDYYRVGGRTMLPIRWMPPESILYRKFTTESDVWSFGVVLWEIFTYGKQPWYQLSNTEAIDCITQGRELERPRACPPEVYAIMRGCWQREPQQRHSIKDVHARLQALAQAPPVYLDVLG

[9] = Cytotoxicity against human HFF-1 cells assessed as cell growth inhibition at 10 uM by MTT assay relative to control; format: cell-based; conditions: read-out: GI
[10] = molecular target: Tyrosine-protein kinase ABL1 (Homo sapiens) (UniProt P00519); test: Inhibition of recombinant N-terminal His6-tagged human ABL (27 to end residues) expressed in baculovirus infected Sf21 insect cells assessed as residual activity at 10 uM relative to control
Sequence of Tyrosine-protein kinase ABL1 (Homo sapiens) (P00519 whole entry): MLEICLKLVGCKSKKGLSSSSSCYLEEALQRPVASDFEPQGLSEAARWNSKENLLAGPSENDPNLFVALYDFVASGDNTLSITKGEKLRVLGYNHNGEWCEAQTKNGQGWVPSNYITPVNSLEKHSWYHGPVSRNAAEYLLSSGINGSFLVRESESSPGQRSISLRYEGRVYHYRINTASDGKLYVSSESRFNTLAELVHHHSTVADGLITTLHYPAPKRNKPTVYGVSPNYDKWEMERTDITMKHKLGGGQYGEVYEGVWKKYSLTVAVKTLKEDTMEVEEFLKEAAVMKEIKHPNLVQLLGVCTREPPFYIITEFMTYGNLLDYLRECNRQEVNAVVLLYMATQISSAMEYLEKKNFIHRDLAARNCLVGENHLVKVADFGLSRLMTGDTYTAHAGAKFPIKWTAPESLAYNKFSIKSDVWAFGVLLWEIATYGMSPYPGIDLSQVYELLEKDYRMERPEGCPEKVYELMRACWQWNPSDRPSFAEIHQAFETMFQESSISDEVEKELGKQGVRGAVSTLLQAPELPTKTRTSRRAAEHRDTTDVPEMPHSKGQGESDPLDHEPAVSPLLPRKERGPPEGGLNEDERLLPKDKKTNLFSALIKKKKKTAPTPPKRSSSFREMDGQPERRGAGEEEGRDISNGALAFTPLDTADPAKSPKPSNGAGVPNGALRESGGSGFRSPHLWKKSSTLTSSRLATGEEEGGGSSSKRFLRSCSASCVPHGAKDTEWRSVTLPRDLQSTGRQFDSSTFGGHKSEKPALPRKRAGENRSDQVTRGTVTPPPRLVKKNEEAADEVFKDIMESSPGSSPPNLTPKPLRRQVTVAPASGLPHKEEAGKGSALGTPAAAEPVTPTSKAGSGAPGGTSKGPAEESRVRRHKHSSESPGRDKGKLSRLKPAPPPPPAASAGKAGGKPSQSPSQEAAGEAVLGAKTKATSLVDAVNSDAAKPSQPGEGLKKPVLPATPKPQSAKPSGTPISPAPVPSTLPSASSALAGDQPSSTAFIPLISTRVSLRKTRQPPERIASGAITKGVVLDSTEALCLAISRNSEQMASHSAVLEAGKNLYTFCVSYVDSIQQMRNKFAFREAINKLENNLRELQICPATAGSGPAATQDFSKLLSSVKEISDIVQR

[11] = tested on: Panel ovarian (Carcinoma cell lines); test: cells; format: functional; conditions: Homo sapiens, time 48 hrs
Description: Growth inhibition of human Panel ovarian (Carcinoma cell lines) incubated for 48 hrs by sulforhodamine B assay

[12] = molecular target: Serine/threonine-protein kinase B-raf (Homo sapiens) (UniProt P15056); test: Inhibition of recombinant N-terminal GST-tagged human BRAF (417 to 766 residues) expressed in Sf9 cells assessed as residual activity at 10 uM relative to control
Sequence of Serine/threonine-protein kinase B-raf (Homo sapiens) (P15056 whole entry, the tested form may be a part): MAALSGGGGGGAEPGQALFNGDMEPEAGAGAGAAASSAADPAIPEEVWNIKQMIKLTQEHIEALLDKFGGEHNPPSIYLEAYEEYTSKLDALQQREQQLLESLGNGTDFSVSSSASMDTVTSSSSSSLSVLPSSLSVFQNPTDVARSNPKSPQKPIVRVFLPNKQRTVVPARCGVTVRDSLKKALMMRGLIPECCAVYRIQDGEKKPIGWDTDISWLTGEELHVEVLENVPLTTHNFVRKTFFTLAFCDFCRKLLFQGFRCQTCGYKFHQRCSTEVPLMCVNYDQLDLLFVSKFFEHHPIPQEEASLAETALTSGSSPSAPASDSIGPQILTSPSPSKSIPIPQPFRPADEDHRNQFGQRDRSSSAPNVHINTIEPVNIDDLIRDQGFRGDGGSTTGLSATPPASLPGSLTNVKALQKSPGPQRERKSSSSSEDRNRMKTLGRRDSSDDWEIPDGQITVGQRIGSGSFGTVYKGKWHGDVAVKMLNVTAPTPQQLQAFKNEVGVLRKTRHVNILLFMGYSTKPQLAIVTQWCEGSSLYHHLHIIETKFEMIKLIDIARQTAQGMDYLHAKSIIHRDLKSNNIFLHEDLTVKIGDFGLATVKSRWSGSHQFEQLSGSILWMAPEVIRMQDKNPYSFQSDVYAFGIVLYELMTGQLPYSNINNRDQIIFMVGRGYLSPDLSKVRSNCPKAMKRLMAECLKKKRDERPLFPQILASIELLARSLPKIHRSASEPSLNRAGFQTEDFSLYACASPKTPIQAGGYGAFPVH

Sequence of Tyrosine-protein kinase JAK2 (Homo sapiens) (O60674 whole entry): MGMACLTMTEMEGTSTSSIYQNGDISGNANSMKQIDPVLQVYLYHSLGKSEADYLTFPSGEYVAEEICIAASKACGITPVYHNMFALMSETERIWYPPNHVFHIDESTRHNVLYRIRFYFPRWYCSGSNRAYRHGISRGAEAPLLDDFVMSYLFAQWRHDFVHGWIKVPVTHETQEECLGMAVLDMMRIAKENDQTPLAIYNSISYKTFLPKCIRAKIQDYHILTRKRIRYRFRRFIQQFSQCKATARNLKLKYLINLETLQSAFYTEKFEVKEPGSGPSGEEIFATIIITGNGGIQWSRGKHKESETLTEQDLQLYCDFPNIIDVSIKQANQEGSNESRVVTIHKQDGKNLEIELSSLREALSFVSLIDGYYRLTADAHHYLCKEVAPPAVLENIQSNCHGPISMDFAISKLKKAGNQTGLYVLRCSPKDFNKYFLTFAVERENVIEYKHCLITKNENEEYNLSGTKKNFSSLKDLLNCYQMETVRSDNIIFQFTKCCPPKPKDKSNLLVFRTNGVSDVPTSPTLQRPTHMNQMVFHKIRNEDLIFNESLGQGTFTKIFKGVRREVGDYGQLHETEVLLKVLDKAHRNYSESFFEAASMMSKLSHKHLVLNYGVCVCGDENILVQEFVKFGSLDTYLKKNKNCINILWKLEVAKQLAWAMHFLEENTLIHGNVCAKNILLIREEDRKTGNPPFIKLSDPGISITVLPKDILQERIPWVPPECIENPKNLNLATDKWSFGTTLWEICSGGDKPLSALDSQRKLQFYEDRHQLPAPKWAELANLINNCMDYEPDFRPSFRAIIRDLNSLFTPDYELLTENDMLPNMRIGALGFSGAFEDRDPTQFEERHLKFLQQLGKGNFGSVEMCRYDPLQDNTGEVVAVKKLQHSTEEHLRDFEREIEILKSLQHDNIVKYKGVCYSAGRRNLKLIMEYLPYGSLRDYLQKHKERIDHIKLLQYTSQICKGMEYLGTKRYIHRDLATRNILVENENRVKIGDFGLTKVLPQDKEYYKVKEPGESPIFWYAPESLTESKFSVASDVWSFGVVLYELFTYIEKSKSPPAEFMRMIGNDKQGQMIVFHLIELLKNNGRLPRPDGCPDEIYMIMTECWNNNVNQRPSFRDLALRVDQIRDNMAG

## CN1CCN(CCCOc2cccc3nc(Nc4ccc(Cl)c(C(F)(F)F)c4)ccc23)CC1
SK-MEL-28
  GI50: 1.39 µM
[1]
  inhibition: < 60%
SR
  GI50: 0.54 µM
NCI-H23
  GI50: 1.78 µM
[2]
  GI50: 1.62 µM
  TGI: 3.47 µM
[2]; read-out: LC50 (the source's name)
  CC50: 8.13 µM
[3]
  Activity: < 60%
A549
  GI50: 1.72 µM
[4]
  inhibition: < 60%
HCT-15
  GI50: 1.22 µM
NCI-H322M
  GI50: 1.44 µM
[5]
  inhibition: < 60%
RXF 393
  GI50: 1.63 µM
[6]
  Activity: < 60%
[7]
  Activity: < 60%
[8]
  IC50: 2.52 µM
[9]
  inhibition at 10 µM: 37.1%
[10]
  Activity: < 60%
[11]
  GI50: 1.98 µM
  LC50: 10.3 µM
  TGI: 4.18 µM
[12]
  Activity: < 60%
